The text below walks through data of patent publication US20200316178A1 (SHIRE HUMAN GENETIC THERAPIES, INC., priority 2017, published 2020).

Molecules are shown by their SMILES. Read-outs that look alike come from different tables or passages of the source.

The target of data set [1] is T1, GCB (Homo sapiens, UniProt P04062).
T1 sequence (P04062 40-536): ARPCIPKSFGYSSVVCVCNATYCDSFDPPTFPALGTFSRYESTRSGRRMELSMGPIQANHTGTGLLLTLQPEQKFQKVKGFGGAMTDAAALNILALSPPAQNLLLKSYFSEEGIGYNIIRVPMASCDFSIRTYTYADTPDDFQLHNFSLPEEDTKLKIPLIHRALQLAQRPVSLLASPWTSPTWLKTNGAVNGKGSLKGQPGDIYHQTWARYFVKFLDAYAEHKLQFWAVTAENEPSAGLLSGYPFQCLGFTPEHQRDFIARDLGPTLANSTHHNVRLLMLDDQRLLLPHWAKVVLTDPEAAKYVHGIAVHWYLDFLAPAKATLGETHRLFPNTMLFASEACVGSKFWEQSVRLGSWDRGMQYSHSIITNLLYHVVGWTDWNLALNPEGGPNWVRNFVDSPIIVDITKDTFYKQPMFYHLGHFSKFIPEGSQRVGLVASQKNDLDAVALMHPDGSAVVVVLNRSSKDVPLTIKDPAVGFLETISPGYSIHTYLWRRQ
The data set can be described thus: SDS-PAGE of GCB with pH-adjusted isofagomine. The settings on record: isofagomine pH adjusted to 6.0, GCB from 100 mg/ml, Day 0 and Day 3. The class given is physicochemical. The protocol:
(§1) Samples were denatured at 37° C. for 15 minutes. SDS-PAGE was run on an 8-16% Novex™ Tris-glycine pre-cast gel. 50 mM dithiothretiol was used as the reducing agent.
The results are shown in FIG. 4A for Day 0 and in FIG. 4B for Day 3.

In data set [2] the target is T2, GCB (immobilized velaglucerase alfa) (Homo sapiens, UniProt P04062).
T2 sequence (P04062 40-536): T1 sequence (P04062 40-536)
The protocol: All SPR experiments were performed on a Biacore S-200 by a single-cycle kinetics method. For experiments at pH 7.4, 2 mg/ml GCB was diluted into the GE acetate pH 5.0 buffer to the final concentration of 100 μg/ml. The immobilization running buffer was 10 mM HEPES, 5 mM EDTA, 0.01% P-20, pH 7.4. This buffer was used directly in the binding assay subsequently.
For experiments at pH 5.0, 2 mg/ml GCB was diluted into the GE acetate pH 5.0 buffer to the final concentration of 100 μg/ml. The immobilization running buffer was 20 mM sodium phosphate, 2.7 mM potassium chloride, 137 mM sodium chloride, 5 mM tartrate, 0.01% P-20, pH 5.0. […] GCB was immobilized on a CM5 chip using a normal […] coupling procedure. The target immobilization level was 4000 RU.
For Biacore experiments at pH 7.4, the concentration range was 0.39-100 nM. The total was 9 points with 2-fold serial dilution. For Biacore experiments at pH 5.0, the concentration range was 0.39-100 nM. The total was 9 points with 2-fold serial dilution.
The conditions for the binding assay were as follows: 30 μl/min flow rate, 120 s association time, 600 s dissociation time, and 3 M magnesium chloride as the regeneration reagent.
For each of the pH 5.0 and pH 7.4 studies, two runs were performed. Black lines represent actual data and red lines represent model fitting.

For data set [3], the target named is T1, GCB. The data set can be described thus: SDS-PAGE of GCB with non-pH-adjusted isofagomine. It counts as physicochemical. Conditions: non-pH-adjusted isofagomine added to GCB. The protocol:
as §1

Data set [4] addresses T3, VPRIV (a form of GCB) in human serum (Homo sapiens, UniProt P04062).
T3 construct: Velaglucerase is secreted as a monomeric glycoprotein of approximately 63 kDa; Velaglucerase is composed of 497 amino acids; made in house
T3 sequence (P04062 40-536): T1 sequence (P04062 40-536)
In words: VPRIV activity in human serum at 37° C. with IFG. It counts as in vitro ADME. Conditions: 10 nM VPRIV, human serum 37° C.; for VPRIV activity remaining: 60 minutes. The protocol: Enzyme activity was measured using the cleavage of the 4-methylumbelliferone b-D-glucopyranoside substrate.

Data set [5] has as its system endogenous serum GCB. The settings on record: SC dose of 2.5 mg/kg.
Data set [6] can be described thus: pH of IFGT dissolved in water. It counts as physicochemical. Conditions: 103 mg dissolved in 5 ml of water. The protocol: When IFGT is dissolved in water, an acidic solution results. […] The pH was adjusted to 6.0 by adding 15 μl 10 M sodium hydroxide to the solution.
A short description of data set [7]: Serum exposure of GCB after SC velaglucerase alfa with IFG (ECL ELISA, 4MU-GPS activity assay). Conditions: 0.07 mg/kg IFGT added to 4 mg/kg GCB.
Procedure: Test articles for dosing were prepared as frozen formulations to the animal facility prior to dosing. Test articles were thawed approximately 1 to 3 hours prior to dosing.

Take `OC[C@H]1CNC[C@@H](O)[C@@H]1O` [IFG, isofagomine]: the “smaller bands (<50 kDa) on SDS-PAGE” value in data set [1] is on record as “No smaller bands having sizes of less than 50 kDa were observed”. Further, the ka in data set [2] (First Run at pH 5.0) worked out at 12500 M⁻¹ s⁻¹; in data set [2] (First Run at pH 7.4), 242000 M⁻¹ s⁻¹; in data set [2] (Second Run at pH 5.0) it was 9883 M⁻¹ s⁻¹; in data set [2] (Second Run at pH 7.4) it was 280000 M⁻¹ s⁻¹. Also, the kd is 0.00314 s⁻¹ in data set [2] (First Run at pH 5.0), 0.002274 s⁻¹ in data set [2] (First Run at pH 7.4), 0.001954 s⁻¹ in data set [2] (Second Run at pH 5.0) and 0.001785 s⁻¹ in data set [2] (Second Run at pH 7.4). The “fragments of GCB on SDS-PAGE” value in data set [3] (4° C.) was “yielded fragments of GCB”; in data set [3] (−80° C.) it was “not”. The VPRIV activity remaining entry in data set [4] (1 nM IFG) and in data set [4] (10 nM IFG) was “around 40%” in each case. For the same molecule, the “loss of VPRIV activity” value in data set [4] (30 nM IFG (3× molar ratio) and higher) is “prevented most of the loss of activity”.
On to `O=C(O)[C@H](O)[C@@H](O)C(=O)O.OCC1CNCC(O)[C@@H]1O` [Isofagomine tartrate, isofagomine tartrate], for which the “GCB activity in the serum” value in data set [5] is on record as “increase GCB activity in the serum above the upper limit of normal”. Also, in data set [6], the “pH of the solution” value was 3.25. Further, the “overall enzyme activity of GCB in serum” value in data set [7] (4MU-GPS substrate) is given as “substantially increased”. Further, in data set [7] (ECL ELISA), the “amount of GCB in serum” value is listed as “substantially increased”.
